This is an account of results in the supplement of paper PMC4862054.

Structures are written as SMILES.

The subject of assay [1] is CAL-148. Conditions: 72 h. In outline: (§1)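 Seeding of breast cancer cell lines (20 µl suspension) was done into 384-well plates pre-loaded with compound at 5 concentrations, 10-fold apart, covering a compound-specific 10,000-fold range. The plates were incubated for 72 h, read for CellTox Green fluorescence (485/520 nm), and then read for CellTiter-Glo luminescence after 10 min at room temperature. Every plate was normalised to 0.1 % DMSO and a positive kill control. Curve fitting gave the EC50, censored at the top concentration.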

Another assay deals with SK-BR-3. Conditions: 72 h. In outline: as §1
In assay [2] the test system is HCC1143. The following applies: 72 h. Put shortly: as §1
In the next assay the test system is MDA-MB-436. The following applies: 72 h. Put shortly:
as §1

Assay [3] concerns HCC1937. The following applies: 72 h. Put shortly: as §1
Assay [4] relates to CAL-51. Conditions: 72 h. Put shortly: as §1
A further assay relates to BT-549. The following applies: 72 h. In outline:
as §1

For assay [5], the system named is CAL-148. Nature of the assay: normalised viability (% of control), CellTiter-Blue; higher = more viable cells (about 100 = DMSO control). Conditions: incubation time: 72 h. The method, then: (§2)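 DSRT, CellTiter-Blue viability, 72 h incubation. Signal is normalised to DMSO and benzethonium chloride controls. Value is the normalised response at dose 9.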
The subject of assay [6] is HDQ-P1. The description is as above. Conditions: incubation time: 72 h. Here is the method: as §2
For assay [7], the system named is MDA-MB-453. The assay is described as above. Conditions: incubation time: 72 h. Here is the method: as §2
The subject of assay [8] is CAL-51. The assay is described as above. The following applies: incubation time: 72 h. Here is the method: as §2
Assay [9] concerns CAL-85-1. Described as above. Conditions: incubation time: 72 h. Here is the method:
as §2

The subject of assay [10] is DU-4475. The description is as above. Conditions: incubation time: 72 h. The method, then: as §2
The next assay has as its system CAL-120. Nature of the assay: normalised response (% of control), CellTiter-Glo; higher = more viable cells (100 = DMSO, 0 = benzethonium chloride kill control). Conditions: incubation time: 72 h. In outline:
(§3)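 Compound was dispensed into 384-well plates at 5 concentrations in 10-fold steps spanning a 10,000-fold range specific to that compound. Breast cancer cell lines were added as 20 µl suspension and left for 72 h before CellTox Green fluorescence (485/520 nm) and then CellTiter-Glo luminescence, read after 10 min at room temperature. Each reported value is the normalised signal at one concentration, with 0.1 % DMSO set at 100 and a positive kill control at 0 on each plate.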
Background: Cellular ATP, detected with luciferase, serves as a proxy for viable cell number.

Assay [11] deals with HCC1143. Described as above. Conditions: incubation time: 72 h. Put shortly: as §3
In a further assay the test system is MFM-223. The description is as above. Conditions: incubation time: 72 h. Put shortly:
as §3

Another assay deals with Hs578T. The description is as above. Conditions: incubation time: 72 h. Put shortly:
as §3

The test system of a further assay is HCC1599. Described as above. Conditions: incubation time: 72 h. In outline:
as §3

The test system of assay [12] is BT-474. The assay is described as above. The following applies: incubation time: 72 h. Put shortly: as §3
The test system of assay [13] is HDQ-P1. The assay is described as above. The following applies: incubation time: 72 h. In outline: as §3
Assay [14] has as its system HCC1937. Described as above. The following applies: incubation time: 72 h. In outline: as §3
The next assay has as its system MDA-MB-231. The assay is described as above. The following applies: incubation time: 72 h. Put shortly:
as §3

Assay [15] deals with MDA-MB-453. The assay is described as above. Conditions: incubation time: 72 h. In outline:
as §3

Assay [16] relates to CAL-85-1. The assay is described as above. Conditions: incubation time: 72 h. Put shortly: as §3
The test system of assay [17] is DU-4475. Described as above. Conditions: incubation time: 72 h. Put shortly:
as §3

Another assay concerns MDA-MB-468. Conditions: 72 h. In outline: as §1
The subject of assay [18] is BT-474. The following applies: 72 h. In outline: as §1
In assay [19] the test system is DU-4475. Conditions: 72 h. Put shortly: as §1

`Cc1c(N)nc([C@H](CC(N)=O)NC[C@H](N)C(N)=O)nc1C(=O)N[C@H](C(=O)N[C@H](C)[C@@H](O)[C@H](C)C(=O)N[C@H](C(=O)NCCc1nc(-c2nc(C(=O)NCCC[S+](C)C)cs2)cs1)[C@@H](C)O)[C@@H](OC1OC(CO)C(O)C(O)C1OC1OC(CO)C(O)C(OC(N)=O)C1O)c1cnc[nH]1` (stereo partly drawn) [Bleomycin]: the “EC50, CellTiter-Glo” value with CAL-148 [1] worked out at 911 nM; with SK-BR-3 it was 1830 nM; in the assay on HCC1143 [2], 9670 nM; in the assay on MDA-MB-436 it was 5920 nM; with HCC1937 [3] it was 8710 nM; in the assay with CAL-51 [4], 49.9 nM. Also, the “EC50, CellTiter-Glo” value in the assay with BT-549 was 2360 nM.
Take `Cc1cc2c(F)c(Oc3ncnn4cc(OC[C@@H](C)O)c(C)c34)ccc2[nH]1` [Brivanib]: the “EC50, CellTiter-Glo” value with CAL-51 [4] was 176 nM.
In the case of `CCCCCOC(=O)Nc1nc(=O)n([C@@H]2O[C@H](C)[C@@H](O)[C@H]2O)cc1F` [Capecitabine], the “EC50, CellTiter-Glo” value in the assay with MDA-MB-436 stood at 5970 nM.
Take `C[C@@H]1C[C@H]2[C@@H]3CCC4=CC(=O)C=C[C@]4(C)[C@@]3(F)[C@@H](O)C[C@]2(C)[C@@]1(O)C(=O)CO` [Dexamethasone] (10000 nM): the normalised viability with CAL-148 [5] came out at 109%; with HDQ-P1 [6], 125%; with MDA-MB-453 [7], 75.3%; in the assay with CAL-51 [8] it was 97.9%; in the assay on CAL-85-1 [9], 105%; in the assay with DU-4475 [10], 104%. The normalised response with CAL-120 was 70.3%; in the assay on HCC1143 [11], 99.6%; with MFM-223 it was 94.2%; with Hs578T, 105%; in the assay on HCC1599 it was 83.5%; with BT-474 [12], 137%. The normalised response with HDQ-P1 [13] was 82%; in the assay on HCC1937 [14], 98.4%; in the assay with MDA-MB-231 it was 149%; in the assay on MDA-MB-453 [15] it was 78.7%; in the assay with CAL-85-1 [16], 124%; in the assay on DU-4475 [17] it was 101%.
Regarding `Cc1c(C(=O)Nc2ccc(N3C[C@@H](C)O[C@@H](C)C3)nc2)cccc1-c1ccc(OC(F)(F)F)cc1` [Erismodegib], the “EC50, CellTiter-Glo” value is 6610 nM in the assay with MDA-MB-468, 722 nM in the assay with BT-474 [18], 636 nM in the assay with MDA-MB-436 and 41 nM in the assay on CAL-51 [4].
On to `CC(C)C(=O)Nc1ccc([N+](=O)[O-])c(C(F)(F)F)c1` [Flutamide], for which, in the assay with CAL-51 [4], the “EC50, CellTiter-Glo” value was greater than 10000 nM.
For the compound `CC(C)C(=O)Nc1ccc([N+](=O)[O-])c(C(F)(F)F)c1` [Flutamide] (10000 nM), the normalised viability worked out at 106% in the assay with CAL-148 [5]; 124% in the assay with HDQ-P1 [6]; 91.7% in the assay on MDA-MB-453 [7]; 98.3% in the assay on CAL-51 [8]; 84.8% with CAL-85-1 [9]; 87.4% with DU-4475 [10]. The normalised response in the assay on CAL-120 is 104%; with HCC1143 [11] it was 95%; with MFM-223, 90.9%; in the assay with Hs578T, 101%; in the assay on HCC1599, 90%; with BT-474 [12], 95.6%. For the same compound, the normalised response worked out at 92.4% in the assay with HDQ-P1 [13]; 92.7% with HCC1937 [14]; 93.3% in the assay with MDA-MB-231; 96.1% with MDA-MB-453 [15]; 90.1% in the assay on CAL-85-1 [16]; 97.7% in the assay on DU-4475 [17].
As for `COc1cc2c(Oc3ccc(NC(=O)C4(C(=O)Nc5ccc(F)cc5)CC4)cc3F)ccnc2cc1OCCCN1CCOCC1` [Foretinib] (1000 nM), the normalised viability is 25.8% with CAL-148 [5]; 45.4% in the assay on HDQ-P1 [6]; 51.8% with MDA-MB-453 [7]; 24.8% with CAL-51 [8]; 66.8% in the assay on CAL-85-1 [9]; 29.4% in the assay on DU-4475 [10]. Further, the normalised response turned out to be 68% in the assay with CAL-120; 69.2% in the assay on HCC1143 [11]; 44.6% in the assay on MFM-223; 76% in the assay with Hs578T; 104% in the assay with HCC1599; 73% with BT-474 [12]. Besides, the normalised response in the assay with HDQ-P1 [13] was 66.1%; in the assay with HCC1937 [14], 72.5%; in the assay with MDA-MB-231, 60.2%; with MDA-MB-453 [15], 125%; in the assay with CAL-85-1 [16], 90.3%; with DU-4475 [17], 80.8%.
Turning to `NC(=O)NO` [Hydroxyurea], the “EC50, CellTiter-Glo” value in the assay on CAL-51 [4] worked out at 1290 nM; in the assay with BT-549, 14000 nM.
Regarding `NC(=O)NO` [Hydroxyurea] (100000 nM), the normalised viability with CAL-148 [5] turned out to be 119%; with HDQ-P1 [6], 123%; in the assay on MDA-MB-453 [7], 91.5%; in the assay with CAL-51 [8] it was 100%; in the assay with CAL-85-1 [9], 90%; in the assay on DU-4475 [10], 121%. The normalised response with CAL-120 stood at 96.9%; in the assay on HCC1143 [11], 104%; in the assay with MFM-223, 104%; in the assay on Hs578T, 104%; with HCC1599, 96.4%; in the assay on BT-474 [12], 97.2%. Moreover, the normalised response is 97% with HDQ-P1 [13]; 95% with HCC1937 [14]; 98.5% in the assay with MDA-MB-231; 106% in the assay on MDA-MB-453 [15]; 101% with CAL-85-1 [16]; 102% in the assay on DU-4475 [17].
`O=NN(CCCl)C(=O)NC1CCCCC1` [Lomustine] (10000 nM): the normalised viability was 99.1% with CAL-148 [5]; 111% in the assay with HDQ-P1 [6]; 47.5% in the assay with MDA-MB-453 [7]; 104% in the assay on CAL-51 [8]; 77.4% in the assay with CAL-85-1 [9]; 91.5% in the assay with DU-4475 [10]. Also, the normalised response in the assay with CAL-120 is 98.5%; with HCC1143 [11], 96.2%; with MFM-223, 106%; in the assay with Hs578T, 103%; in the assay on HCC1599, 104%; with BT-474 [12] it was 97.2%. For the same compound, the normalised response with HDQ-P1 [13] came to 99.5%; in the assay on HCC1937 [14] it was 99%; with MDA-MB-231, 95.9%; in the assay on MDA-MB-453 [15], 107%; with CAL-85-1 [16] it was 99.9%; in the assay with DU-4475 [17], 99.7%.
Turning to `O=C(O)CC[C@H]1CC[C@@](c2cc(F)ccc2F)(S(=O)(=O)c2ccc(Cl)cc2)CC1` [MK-0752] (1000 nM), the normalised viability was 119% in the assay on CAL-148 [5]; 126% in the assay on HDQ-P1 [6]; 117% with MDA-MB-453 [7]; 100% in the assay on CAL-51 [8]; 104% with CAL-85-1 [9]; 110% in the assay on DU-4475 [10]. Besides, the normalised response in the assay with CAL-120 turned out to be 105%; in the assay with HCC1143 [11], 103%; with MFM-223 it was 100%; with Hs578T it was 98.5%; with HCC1599, 89%; in the assay with BT-474 [12], 95.4%. Besides, the normalised response in the assay on HDQ-P1 [13] came to 95.5%; in the assay on HCC1937 [14], 95.1%; with MDA-MB-231 it was 97%; in the assay with MDA-MB-453 [15], 108%; in the assay on CAL-85-1 [16] it was 98.1%; in the assay on DU-4475 [17], 102%.
`NC(=O)c1cccc2cn(-c3ccc([C@@H]4CCCNC4)cc3)nc12` [MK-4827]: the “EC50, CellTiter-Glo” value in the assay with CAL-148 [1] came to 2630 nM; in the assay on MDA-MB-468 it was 9350 nM; in the assay on MDA-MB-436, 601 nM; in the assay on DU-4475 [19], 1090 nM.
